Source: patent publication US8431593B2, “Heteroaryl amide derivatives” (H. Lundbeck A/S, priority 2006, dated 2013)

target: T1, P2X7 receptor (Homo sapiens, UniProt Q99572); assay: P2X7 calcium mobilization assay, high throughput, antagonist activity (Example 4A); format: cell-based; conditions: not given
T1 construct: host or cells: SH-SY5Y
T1 sequence (Q99572 1-595): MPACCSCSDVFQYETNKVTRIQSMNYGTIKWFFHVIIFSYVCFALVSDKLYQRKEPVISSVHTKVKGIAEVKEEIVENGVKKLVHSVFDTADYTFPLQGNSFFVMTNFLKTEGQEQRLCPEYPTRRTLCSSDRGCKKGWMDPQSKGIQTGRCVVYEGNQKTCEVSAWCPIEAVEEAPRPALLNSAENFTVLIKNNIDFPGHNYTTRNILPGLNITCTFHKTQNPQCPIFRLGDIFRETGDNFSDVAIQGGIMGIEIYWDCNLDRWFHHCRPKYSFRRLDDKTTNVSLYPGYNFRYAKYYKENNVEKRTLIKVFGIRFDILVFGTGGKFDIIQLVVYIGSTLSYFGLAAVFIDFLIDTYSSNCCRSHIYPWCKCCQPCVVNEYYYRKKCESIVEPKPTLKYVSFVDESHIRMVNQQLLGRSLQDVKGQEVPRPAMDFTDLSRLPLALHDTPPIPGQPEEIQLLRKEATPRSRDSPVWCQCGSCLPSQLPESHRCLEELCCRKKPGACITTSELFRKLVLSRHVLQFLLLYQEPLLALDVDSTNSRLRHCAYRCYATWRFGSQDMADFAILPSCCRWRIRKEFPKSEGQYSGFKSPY
Method in brief: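 FLIPR^TETRA calcium read-out: maximum RFU per well minus average no-agonist control, with agonist wells giving the average positive maximum. Cells seeded at 100,000/well one day ahead, dye-loaded 1 h, rinsed, then exposed to compound for 1 h at room temperature.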

How did the IC50 turn out when `CC(C)(CO)NC(=O)c1cn2c(C(=O)NC[C@@H]3CC[C@H]4C[C@@H]3C4(C)C)cccc2n1` [Compound 520, 5-N-{[(1S,2R,5S)-6,6-dimethylbicyclo[3.1.1]hept-2-yl]methyl}-2-N-(2-hydroxy-1,1-dimethylethyl)imidazo[1,2-a]pyridine-2,5-dicarboxamide] was run?
Its IC50 is less than 2000 nM.

Which IC50 does the source give for `O=C(NCC12CC3CC(CC(C3)C1)C2)c1cccc2nc(CC(=O)N3CCC4(CC3)OCCO4)cn12` [Compound 187, N-(adamantan-1-ylmethyl)-2-[2-(1,4-dioxa-8-azaspiro[4.5]dec-8-yl)-2-oxoethyl]imidazo[1,2-a]pyridine-5-carboxamide] here?
Its IC50 is less than 2000 nM.

For `C[C@@H](O)CNC(=O)Cc1cn2c(C(=O)NCC34CC5CC(CC(C5)C3)C4)cccc2n1` [Compound 28, N-(adamantan-1-ylmethyl)-2-(2-{[(2R)-2-hydroxy-propyl]amino}-2-oxoethyl)imi-dazo[1,2-a]pyridine-5-carboxamide], which IC50 is on record?
The IC50 was less than 2000 nM.

same assay, conditions: 50% decrease in the fluorescence response of cells exposed to 80 μM 2′(3′)-O-(4-benzoyl-benzoyl)adenosine 5′-triphosphate; Example 4A; read-out: IC50

With `CC(C)[C@@H]1CNCCN1C(=O)Cc1cn2c(C(=O)NC[C@@H]3CC[C@@H]4C[C@H]3C4(C)C)cccc2n1` [Compound 570, N-{[(1R,2R,5R)-6,6-dimethylbicyclo[3.1.1]hept-2-yl]methyl}-2-{2-[(2R)-2-isopropylpiperazin-1-yl]-2-oxoethyl}imidazo[1,2-a]pyridine-5-carboxamide] as the compound, how does the IC50 read?
The IC50 was less than 2000 nM.

`CC1(C)[C@@H]2CC[C@@H](CNC(=O)c3cccc4nc(CC(=O)N5C[C@H]6CC5CN6)cn34)[C@H]1C2` (stereo in doubt) [Compound 558, 2-{2-[(1R,4R)-2,5-diazabicyclo[2.2.1]hept-2-yl]-2-oxoethyl}-N-{[(1R,2R,5R)-6,6-dimethylbicyclo [3.1.1]hept-2-yl]methyl}imidazo[1,2-a]pyridine-5-carboxamide] was tested. Which IC50 did it give?
The IC50 was less than 2000 nM.

With `CNCc1cn2c(C(=O)NCC34CC5CC(CC(C5)C3)C4)cccc2n1` [Compound 596, N-(adamantan-1-ylmethyl)-2-[(methylamino)methyl] imidazo[1,2-a] pyridine-5-carboxamide] as the compound, how does the IC50 read?
The IC50 was less than 2000 nM.

same assay, conditions: 50% decrease in the fluorescence response of cells exposed to 80 μM of 2′(3′)-O-(4-benzoyl-benzoyl)adenosine 5′-triphosphate; Example 4A; read-out: IC50

For `O=C(NCCCN1CCOCC1)c1cn2c(C(=O)NCC34CC5CC(CC(C5)C3)C4)cccc2n1` [Compound 654, 5-N-(adamantan-1-ylmethyl)-2-N-(3-morpholin-4-ylpropyl)imidazo [1,2-a]pyridine-2,5-dicarboxamide], which IC50 is on record?
The IC50 was less than 2000 nM.

same assay, conditions: 50% decrease in the fluorescence response of cells exposed to 80 μM of 2′(3′)-O-(4-benzoyl-benzoyl)adenosine 5′-triphosphate; determined as in Example 4A; read-out: IC50

For `CN(C)C1CCCN(C(=O)Cc2cn3c(C(=O)NCC4(c5ccc(C(F)(F)F)cc5)CCCCC4)cccc3n2)C1` (stereo not drawn) [Compound 892, 2-{2-[3-(dimethylamino)piperidin-1-yl]-2-oxoethyl}-N-({1-[4-(trifluoromethyl)phenyl]cyclohexyl}methyl) imidazo[1,2-a] pyridine-5-carboxamide], which IC50 is on record?
The IC50 was less than 2000 nM.

`COC1CCN(C(=O)Cc2cn3c(C(=O)NCC4(c5ccc(Cl)cc5)CCCCC4)cccc3n2)CC1` [Compound 898, N-{[1-(4-chlorophenyl)cyclohexyl]methyl}-2-[2-(4-methoxypiperidin-1-yl)-2-oxoethyl] imidazo[1,2-a] pyridine-5-carboxamide] was tested. Which IC50 did it give?
The IC50 was less than 2000 nM.

Which IC50 does the source give for `CC(C)CC(CNC(=O)c1cccc2nc(C(=O)N3CCC[C@@H](N)C3)cn12)c1ccc(Cl)cc1` (stereo partly drawn) [Compound 832, 2-{[(3R)-3-aminopiperidin-1-yl]carbonyl}-N-[2-(4-chlorophenyl)-4-methylpentyl] imidazo[1,2-a] pyridine-5-carboxamide] here?
Its IC50 is less than 2000 nM.

How did the IC50 turn out when `O=C(Cc1cn2c(C(=O)NCC3(c4ccc(Cl)cc4)CCOCC3)cccc2n1)NCC(F)(F)F` [Compound 872, N-{[4-(4-chlorophenyl)tetrahydro-2H-pyran-4-yl]methyl}-2-{2-oxo-2-[(2,2,2-trifluoroethyl)amino]ethyl}imidazo [1,2-a]pyridine-5-carboxamide] was run?
Its IC50 is less than 2000 nM.

For `O=C(NCC1(c2ccc(Cl)cc2)CCCCC1)c1cccc2nc(CSc3nnn[nH]3)cn12` [Compound 915, N-{[1-(4-chlorophenyl)cyclohexyl]methyl}-2-[(1H-tetrazol-5-ylthio)methyl] imidazo [1,2-a]pyridine-5-carboxamide], which IC50 is on record?
Its IC50 is less than 2000 nM.

With `O=C(O)Cc1cn2c(C(=O)NCC3(c4ccc(C(F)(F)F)cc4)CCCCC3)cccc2n1` [Compound 963, {5-[({1-[4-(trifluoromethyl)phenyl]cyclohexyl}methyl)carbamoyl]imidazo[1,2-a]pyridin-2-yl}acetic acid] as the compound, how does the IC50 read?
The IC50 was less than 2000 nM.

How did the IC50 turn out when `CC(C)CC(CNC(=O)c1cccc2nc(CC(=O)N3CCC[C@@H](N)C3)cn12)c1cccnc1` (stereo partly drawn) [Compound 946, 2-{2-[(3R)-3-aminopiperidin-1-yl]-2-oxoethyl}-N-(4-methyl-2-pyridin-3-ylpentyl) imidazo[1,2-a]pyridine-5-carboxamide] was run?
Its IC50 is less than 2000 nM.

For `O=C(NCC1(c2cccnc2)CCCCC1)c1cccc2nc(CC(=O)N3CCSCC3)cn12` [Compound 890, 2-(2-oxo-2-thiomorpholin-4-ylethyl)-N-[(1-pyridin-3-ylcyclohexyl)methyl] imidazo[1,2-a] pyridine-5-carboxamide], which IC50 is on record?
Its IC50 is less than 2000 nM.

`O=C(Cc1cn2c(C(=O)NCC34CC5CC(CC(C5)C3)C4)cccc2n1)N[C@@H]1CCNC1` [Compound 837, N-(adamantan-1-ylmethyl)-2-{2-oxo-2-[(3R)-pyrrolidin-3-ylamino]ethyl} imidazo [1,2-a]pyridine-5-carboxamide] was tested. Which IC50 did it give?
The IC50 was less than 2000 nM.

same assay, conditions: P2X7 calcium mobilization, Example 4A; 50% decrease in the fluorescence response of cells exposed to 80 μM of (2′(3′)-O-(4-benzoyl-benzoyl)adenosine 5′-triphosephate); read-out: IC50

For `Cc1ccc(C(CNC(=O)c2cccc3nc(CN4CCCC4)cn23)CC(C)C)cc1` (stereo not drawn) [Compound 1048, N-[4-methyl-2-(4-methylphenyl)pentyl]-2-(pyrrolidin-1-ylmethyl) imidazo [1,2-a] pyridine-5-carboxamide], which IC50 is on record?
Its IC50 is less than 2000 nM.

same assay, conditions: SH-SY5Y cells; 50% decrease in fluorescence response to 80 μM BzATP; read-out: IC50

For `NC(=O)CNC(=O)Cc1cn2c(C(=O)NCC34CC5CC(CC(C5)C3)C4)cccc2n1` [Compound 24, N-(adamantan-1-ylmethyl)-2-{2-[(2-amino-2-oxoethyl)amino]-2-oxoethyl}imidazo[1,2-a]pyridine-5-carboxamide], which IC50 is on record?
The IC50 was less than 2000 nM.

With `COC1CCN(C(=O)Cc2cn3c(C(=O)NCC45CC6CC(CC(C6)C4)C5)cccc3n2)CC1` [Compound 42, N-(adamantan-1-ylmethyl)-2-[2-(4-methoxypiperidin-1-yl)-2-oxoethyl]imidazo[1,2-a]pyridine-5-carboxamide] as the compound, how does the IC50 read?
Its IC50 is less than 2000 nM.

`C[C@H]1CN(C(=O)Cc2cn3c(C(=O)NCC45CC6CC(CC(C6)C4)C5)cccc3n2)CCN1` [Compound 140, N-(adamantan-1-ylmethyl)-2-{2-[(3S)-3-methylpiperazin-1-yl]-2-oxoethyl}imidazo[1,2-a]pyridine-5-carboxamide] was tested. Which IC50 did it give?
The IC50 was less than 2000 nM.

Which IC50 does the source give for `O=CN1CCN(C(=O)Cc2cn3c(C(=O)NCC45CC6CC(CC(C6)C4)C5)cccc3n2)CC1` [Compound 167, N-(adamantan-1-ylmethyl)-2-[2-(4-formylpiperazin-1-yl)-2-oxoethyl]imidazo[1,2-a]pyridine-5-carboxamide] here?
Its IC50 is less than 2000 nM.

With `NC(=O)C1CCCN(C(=O)c2cn3c(C(=O)NCC45CC6CC(CC(C6)C4)C5)cccc3n2)C1` (stereo not drawn) [Compound 103, N-(adamantan-1-ylmethyl)-2-[(3-carbamoylpiperidin-1-yl)carbonyl]imidazo[1,2-a]pyridine-5-carboxamide] as the compound, how does the IC50 read?
Its IC50 is less than 2000 nM.

same assay, conditions: fluorescence response of cells exposed to 80 μM 2′(3′)-O-(4-benzoyl-benzoyl)adenosine 5′-triphosphate; Example 4A; read-out: IC50

With `CCOC(=O)C(C)c1cn2c(C(=O)NCC34CC5CC(CC(C5)C3)C4)cccc2n1` (stereo not drawn) [Compound 338, ethyl 2-{5-[(adamantan-1-ylmethyl)carbamoyl]imidazo[1,2-a]pyridin-2-yl}propanoate] as the compound, how does the IC50 read?
The IC50 was less than 2000 nM.

For `Cc1cc(C(=O)O)nn1Cc1cn2c(C(=O)NCC34CC5CC(CC(C5)C3)C4)cccc2n1` [Compound 276, 1-({5-[(adamantan-1-ylmethyl)carbamoyl]imidazo[1,2-a]pyridin-2-yl}methyl)-5-methyl-1H-pyrazole-3-carboxylic acid], which IC50 is on record?
Its IC50 is less than 2000 nM.

Which IC50 does the source give for `Cc1cc(-c2cn3c(C(=O)NCC45CC6CC(CC(C6)C4)C5)cccc3n2)nn1CCO` [Compound 340, N-(adamantan-1-ylmethyl)-2-[1-(2-hydroxyethyl)-5-methyl-1H-pyrazol-3-yl]imidazo[1,2-a]pyridine-5-carboxamide] here?
Its IC50 is less than 2000 nM.

For `CC(C)CC(CNC(=O)c1cccc2nc(CC(=O)N3CCCC(C(F)(F)F)C3)cn12)c1ccccc1` (stereo not drawn) [Compound 238, N-(4-methyl-2-phenylpentyl)-2-{2-oxo-2-[3-(trifluoromethyl)piperidin-1-yl]ethyl}imidazo [1,2-a]pyridine-5-carboxamide], which IC50 is on record?
The IC50 was less than 2000 nM.

With `CCCC(=O)NC1CCN(C(=O)c2cn3c(NC(=O)CC45CC6CC(CC(C6)C4)C5)cccc3n2)CC1` [Compound 409, N-[1-({5-[(adamantan-1-ylacetyl)amino]imidazo[1,2-a]pyridin-2-yl}carbonyl)piperidin-4-yl]butanamide] as the compound, how does the IC50 read?
The IC50 was less than 2000 nM.
